Patent US20230286927A1, “2-PHENYLBENZOTRIAZOL-5-AMINE DERIVATIVES FOR THE TREATMENT AND PROPHYLAXIS OF HEPATITIS B VIRUS (HBV) INFECTION” (priority 2020, published 2023)

Tests used:
HBsAg = assay: PHH natural infection assay, HBsAg (alphalisa); format: cell-based, HBV; details: Hepatitis B virus, Hepatocyte, 72 h, read-out: HBsAg IC50
Procedure: (§1) Detailed procedures regarding primary human hepatocyte (PHH) HBV natural infection assay are described as below. One tube of frozen PHH (10 million cells) is thawed in 37° C. water bath and then transferred to 20 mL of PHH thawing medium (Sigma, InVitroGRO HT Medium, Cat. S03319) with gently mixing. The cells were then centrifuged at […] for 5 min, the supernatant was discarded and the tube was refilled with 25 mL of PHH plating medium (Sigma, InVitroGRO CP Medium, Cat. S03317). The tube was shaken very gently to re-suspend all cells, and then 50 μl of cells were transferred to each well 384-well collagen I coated plate with appropriate liquid handling equipment, e.g. Integra VIAFLO384 or Agilent Bravo. The cells were then cultured for 24 hours in a cell incubator. For HBV infection, after PHH attachment on the culture plate, the plating medium was removed and replenished with PHH culture medium containing HBV virus. The PHH culture medium was prepared with Dulbecco's Modified Eagle Medium (DMEM)/F12 (1:1 in volume ratio) containing 10% fetal bovine serum (Gibco, Cat. 10099141), 5 ng/mL human epidermal growth factor (Gibco, Cat.PHG031IL), 20 ng/mL dexamethasone (Sigma, Cat.D4902-100 mg), 250 ng/mL human recombinant insulin (Gibco, Cat.41400045) and 100 U/mL penicillin. HBV virus at 200 genome equivalent (GE) per cell with 4% PEG8000 (Sigma, Cat.P1458) containing culture medium were added to the PHH culture medium for infection. The cells were then cultured for 24 hours in cell incubator. Then the cell culture supernatant was removed. The HBV-infected PHH were cultured with sandwich culture method with PHH culture medium containing 1% DMSO and 0.25 mg/mL matrix gel for 72 hours. The supernatant was then refreshed with PHH culture medium containing different concentrations of testing compounds for two times with 72-hour interval. At the end of treatment, the supernatant was collected for viral markers measurements, including HBsAg, HBeAg, HBV DNA and cytotoxicity. HBsAg and HBeAg were detected using alphalisa method using their specific antibodies. For HBV DNA detection, HBV DNA Quantitative Fluorescence Diagnostic Kit (Sansure Biotech Inc.) was used following the manufacture's protocol. Cytotoxicity was determined using Cell Counting Kit-8 (CCK8, Dojindo Molecular Technologies, Inc.).
(§2) The compounds of the present invention were tested for their capacity to inhibit HBsAg and HBeAg as described herein.

HBeAg = assay: PHH natural infection assay, HBeAg (alphalisa); format: cell-based, HBV; details: Hepatitis B virus, Hepatocyte, 72 h, read-out: HBeAg IC50
Procedure: as §1, §2

[1] = Cytotoxicity in PHH natural infection assay (Cell Counting Kit-8); format: cell-based; details: HBV-infected primary human hepatocytes, CCK8
Procedure: as §1

Row | Structure (SMILES) | IC50 (HBsAg) [µM] | IC50 (HBeAg) [µM] | CC50 at 144 h [1] [µM]
1 | Cc1cc2nn(-c3ccc(Cl)cc3)nc2cc1NC(N)=S [Example 60, [2-(4-Chlorophenyl)-6-methyl-benzotriazol-5-yl]thiourea] | 2.28 | 2.31 | > 100
2 | CC(=O)Nc1ccc2nn(-c3ccc(Cl)cc3)nc2c1 [Example 38, N-[2-(4-chlorophenyl)benzotriazol-5-yl]acetamide] | 3.65 | 5.54 | > 100
3 | Clc1ccc(-n2nc3ccc(NC4CCCC4)cc3n2)cc1 [Example 31, 2-(4-Chlorophenyl)-N-cyclopentyl-benzotriazol-5-amine] | 8.86 | 11.9 | > 100
4 | O=C(Nc1ccc2nn(-c3ccc(Cl)cc3)nc2c1)C1CCOCC1 [Example 45, N-[2-(4-chlorophenyl)benzotriazol-5-yl]tetrahydropyran-4-carboxamide] | 3.39 | 1.98 | > 100
5 | Fc1ccc(-n2nc3ccc(NCC4CCOC4)cc3n2)cc1 (stereo not drawn) [Example 20, 2-(4-Fluorophenyl)-N-(tetrahydrofuran-3-ylmethyl)benzotriazol-5-amine] | 5.66 | 7.3 | > 100
6 | COCCNc1ccc2nn(-c3cccc(Cl)c3)nc2c1 [Example 18, 2-(3-Chlorophenyl)-N-(2-methoxyethyl)benzotriazol-5-amine] | 4.5 | 6.83 | > 100
7 | Fc1ccc(-n2nc3ccc(NC4CCOC4)cc3n2)cc1 (stereo not drawn) [Example 21, 2-(4-Fluorophenyl)-N-tetrahydrofuran-3-yl-benzotriazol-5-amine] | 9.74 | 10.6 | > 100
8 | Clc1ccc(-n2nc3ccc(NCC4CC4)cc3n2)cc1 [Example 25, 2-(4-Chlorophenyl)-N-(cyclopropylmethyl)benzotriazol-5-amine] | 5.95 | 7.52 | > 100
9 | CS(=O)(=O)c1ccc(-n2nc3ccc(N)cc3n2)cc1 [Example 7, 2-(4-Methylsulfonylphenyl)benzotriazol-5-amine] | 5.67 | 3.21 | > 100
10 | O=C(Nc1ccc2nn(-c3ccc(Cl)cc3)nc2c1)C1CCCCC1 [Example 39, N-[2-(4-chlorophenyl)benzotriazol-5-yl]cyclohexanecarboxamide] | 3.91 | 2.89 | > 100
11 | Cc1csc(Nc2ccc3nn(-c4ccc(Cl)cc4)nc3c2)n1 [Example 64, N-[2-(4-chlorophenyl)benzotriazol-5-yl]-4-methyl-thiazol-2-amine] | 1.42 | 3.04 | > 100
12 | COCCN(C)c1ccc2nn(-c3ccc(Cl)cc3)nc2c1 [Example 35, 2-(4-Chlorophenyl)-N-(2-methoxyethyl)-N-methyl-benzotriazol-5-amine] | 2 | 3.5 | > 100
13 | Nc1ccc2nn(-c3ccc(F)cc3)nc2c1 [Example 4, 2-(4-Fluorophenyl)benzotriazol-5-amine] | 5.04 | 5.29 | > 100
14 | O=C(CC(F)(F)F)Nc1ccc2nn(-c3ccc(F)cc3)nc2c1 [Example 44, 3,3,3-trifluoro-N-[2-(4-fluorophenyl)benzotriazol-5-yl]propanamide] | 6.87 | 11.7 | > 100
15 | CC(C)c1csc(Nc2ccc3nn(-c4ccc(Cl)cc4)nc3c2)n1 [Example 62, N-[2-(4-chlorophenyl)benzotriazol-5-yl]-4-isopropyl-thiazol-2-amine] | 3.8 | 5.8 | > 100
16 | O=C(CCC(F)(F)F)Nc1ccc2nn(-c3ccc(Cl)cc3)nc2c1 [Example 52, N-[2-(4-chlorophenyl)benzotriazol-5-yl]-4,4,4-trifluoro-butanamide] | 2.25 | 1.89 | > 100
